“And” between values parts separate entries of the source, which are not always exact repeats. Equal values may be shown once. Read-outs that look alike come from different tables or passages of the source.
Assays:
[1] = biological target: T1, creatine kinase (CK) in human serum (Homo sapiens, UniProt P06732); test: Inhibitory effect of oxidized products of SH compounds on CK activity (HK/G6PDH UV method, NAC 26 mM as reactivator); format: biochemical; conditions: for CK activity value / CK activity value, Average: 5 mM SH compound oxidized product; for CK activity value: NAC 26 mM, 37° C.; for CK activity value, Average: average of 5 samples; for activity at 5000 µM: read-out: CK activity, relative value
T1 construct: Five fresh human serum samples were used; from tissue; host or cells: fresh human serum
T1 sequence (P06732 whole entry): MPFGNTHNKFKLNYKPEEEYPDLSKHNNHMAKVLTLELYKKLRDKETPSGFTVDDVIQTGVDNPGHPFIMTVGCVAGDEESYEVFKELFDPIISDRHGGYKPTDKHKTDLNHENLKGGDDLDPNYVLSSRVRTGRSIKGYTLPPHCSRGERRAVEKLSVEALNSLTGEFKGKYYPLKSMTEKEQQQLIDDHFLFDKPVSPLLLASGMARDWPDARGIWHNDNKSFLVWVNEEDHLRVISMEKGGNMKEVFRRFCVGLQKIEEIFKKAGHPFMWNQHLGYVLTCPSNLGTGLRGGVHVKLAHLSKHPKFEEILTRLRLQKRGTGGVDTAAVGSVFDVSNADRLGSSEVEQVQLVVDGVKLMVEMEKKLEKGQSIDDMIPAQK
Method: Investigation on the inhibitory effect of oxidized products of SH compounds on CK activity
Thus, oxidized products of the SH compounds, respectively, were obtained.
NAC (26 mM) as CK reactivator, each 5 mM of SH compound oxidized product obtained above, 2.6 mM of ADP, 3.9 u/ml of HK (available from Oriental Yeast Co., Ltd.), 8.0 u/ml of G6PDH (available from Oriental Yeast Co., Ltd.), 2.6 mM of NADP, 21 mM of glucose, 10 mM of magnesium acetate, 6.5 mM of AMP, 0.013 mM of APSA, 0.1% (w/v) of sodium azide and 2 mM of EDTA-2Na were dissolved in 128 mM imidazole-acetate buffer (pH 6.7). The thus obtained solutions were adjusted to pH 6.7 with sodium hydroxide to obtain enzyme solutions.
An enzyme solution containing no SH compound oxidized product was prepared as a control standard solution.
(§1) Five fresh human serum samples were used.
(§2) To 8 μl of each sample was added 320 μl of each enzyme solution, followed by preincubation for 5 minutes. Then, 80 μl of the substrate solution was added to initiate the reaction and the change of absorbance per minute was measured for 3 minutes from 2 minutes after the addition of the substrate solution. The CK activity value was calculated from the molecular extinction coefficient of the NADPH produced.
(§3) As a measuring apparatus, an Autoanalyzer Hitachi Model 7150 was used, and the measurement was carried out at 37° C. by use of dual wavelength (λ1 =405 nm, λ2 =340 nm).
Tables 2 and 3 show the CK activity values of the 5 samples in each case and the average thereof.

[2] = system: creatine kinase (CK) in human serum; test: CK activity measured with enzyme solutions containing SH compounds as CK reactivator, fresh and after 1 month of storage (Example 1 / Comparative Example 1); format: biochemical; conditions: for CK activity, relative value: NAC just after preparation = 100%
Method: The resulting solution was adjusted to pH 6.7 with sodium hydroxide and stored at a predetermined temperature for a predetermined period. The thus obtained solution were used as enzyme solutions.
as §1, §2, §3
Enzyme solutions were prepared in the same manner as in Example 1 by use of the same reagents as in Example 1 except for using a predetermined concentration(s) of one or two SH compounds properly selected from the above-mentioned CK reactivators, in place of the CK reactivator(s) used in Example 1.
CK activity was measured in the same manner as in Example 1.

[3] = average with enzyme solution containing no SH compound oxidized product = 100%, 5 mM oxidized product
[4] = Sample 1, enzyme solution just after preparation, TG 100 mM, 2ME 26 mM, 2MES 26 mM, NAC 26 mM
[5] = Sample 2, enzyme solution just after preparation, TG 100 mM, 2ME 26 mM, 2MES 26 mM, NAC 26 mM
[6] = Sample 2, enzyme solution stored at 10° C. for 1 month, TG 100, 2ME 26, 2MES 26, NAC 26, L-cysteine 6.5, GSH 12, TDG 5, DTT 6.5 mM
[7] = Sample 2, enzyme solution stored at 20° C. for 1 month, TG 100, 2ME 26, 2MES 26, NAC 26, L-cysteine 6.5, GSH 12, TDG 5, DTT 6.5 mM
[8] = Sample 3, enzyme solution just after preparation, TG 100 mM, 2ME 26 mM, 2MES 26 mM, NAC 26 mM
[9] = Sample 3, enzyme solution stored at 10° C. for 1 month, TG 100, 2ME 26, 2MES 26, NAC 26, L-cysteine 6.5, GSH 12, TDG 5, DTT 6.5 mM
[10] = Sample 3, enzyme solution stored at 20° C. for 1 month, TG 100, 2ME 26, 2MES 26, NAC 26, L-cysteine 6.5, GSH 12, TDG 5, DTT 6.5 mM
[11] = Sample 4, enzyme solution just after preparation, TG 100 mM, 2ME 26 mM, 2MES 26 mM, NAC 26 mM
[12] = Sample 4, enzyme solution stored at 10° C. for 1 month, TG 100, 2ME 26, 2MES 26, NAC 26, L-cysteine 6.5, GSH 12, TDG 5, DTT 6.5 mM
[13] = Sample 4, enzyme solution stored at 20° C. for 1 month, TG 100, 2ME 26, 2MES 26, NAC 26, L-cysteine 6.5, GSH 12, TDG 5, DTT 6.5 mM
[14] = Sample 5, enzyme solution just after preparation, TG 100 mM, 2ME 26 mM, 2MES 26 mM, NAC 26 mM
[15] = Sample 5, enzyme solution stored at 10° C. for 1 month, TG 100, 2ME 26, 2MES 26, NAC 26, L-cysteine 6.5, GSH 12, TDG 5, DTT 6.5 mM
[16] = Sample 5, enzyme solution stored at 20° C. for 1 month, TG 100, 2ME 26, 2MES 26, NAC 26, L-cysteine 6.5, GSH 12, TDG 5, DTT 6.5 mM
[17] = average of 5 samples, enzyme solution just after preparation, TG 100 mM, 2ME 26 mM, 2MES 26 mM, NAC 26 mM
[18] = average of 5 samples, enzyme solution stored at 10° C. for 1 month, TG 100, 2ME 26, 2MES 26, NAC 26, L-cysteine 6.5, GSH 12, TDG 5, DTT 6.5 mM
[19] = average of 5 samples, enzyme solution stored at 20° C. for 1 month, TG 100, 2ME 26, 2MES 26, NAC 26, L-cysteine 6.5, GSH 12, TDG 5, DTT 6.5 mM
[20] = enzyme solution just after preparation
[21] = enzyme solution stored at 10° C. for 1 month
[22] = enzyme solution stored at 20° C. for 1 month
[23] = Sample 1, enzyme solution stored at 20° C. for 1 month, TG 100, 2ME 26, 2MES 26, NAC 26, L-cysteine 6.5, GSH 12, TDG 5, DTT 6.5 mM
[24] = Sample 1, enzyme solution stored at 10° C. for 1 month, TG 100, 2ME 26, 2MES 26, NAC 26, L-cysteine 6.5, GSH 12, TDG 5, DTT 6.5 mM

SMILES | inhibition of CK activity by oxidized product ([1]; 5 mM oxidized product) | CK activity value ([1]; Sample 1 (fresh human serum)) [IU/l.] | CK activity value ([1]; Sample 2) [IU/l.] | CK activity value ([1]; Sample 3) [IU/l.] | CK activity value ([1]; Sample 4) [IU/l.] | CK activity value ([1]; Sample 5) [IU/l.] | CK activity value, Average [1] [IU/l.] | activity at 5000 µM [1, 3] [%] | CK activity value [2, 6] [IU/l] | CK activity value [2, 7] [IU/l] | CK activity value [2, 9] [IU/l] | CK activity value [2, 10] [IU/l] | CK activity value [2, 12] [IU/l] | CK activity value [2, 13] [IU/l] | CK activity value [2, 15] [IU/l] | CK activity value [2, 16] [IU/l] | CK activity value, Average [2, 18] [IU/l] | CK activity value, Average [2, 19] [IU/l] | CK activity, relative value [2, 21] [%] | CK activity, relative value [2, 22] [%] | further results
O[C@@H]1CSSC[C@H]1O (relative stereo) [DTT oxidized product] | hardly inhibited CK activity | 150 | 407 | 108 | 319 | 99 | 216 | 95.9 |  |  |  |  |  |  |  |  |  |  |  |  | 
O=c1ccnc(SSc2nccc(=O)[nH]2)[nH]1 [2-Thiouracil oxidized product] | hardly inhibited CK activity | 143 | 407 | 106 | 314 | 97 | 213 | 94.6 |  |  |  |  |  |  |  |  |  |  |  |  | 
OCCSSCCO [2ME oxidized product] | hardly inhibited CK activity | 155 | 427 | 113 | 332 | 101 | 226 |  |  |  |  |  |  |  |  |  |  |  |  |  | activity at 5000 µM [1]: 100%
OCCS [2ME, 2-mercaptoethanol] |  |  |  |  |  |  |  |  | 559 | 559 | 155 | 155 | 59 | 58 | 89 | 89 | 210 | 209 | 102.8 | 102.4 | retaining CK-reactivating ability for a long period of time in an aqueous solution [2]: capable of retaining CK-reactivating ability for a long period of time; CK activity value [2, 4]: 186 IU/l; CK activity value [2, 5]: 554 IU/l; CK activity value [2, 8]: 151 IU/l; CK activity value [2, 11]: 58 IU/l; CK activity value [2, 14]: 89 IU/l; CK activity value, Average [2, 17]: 208 IU/l; CK activity, relative value [2, 20]: 101.9%
O=S(=O)(O)CCSSCCS(=O)(=O)O [2MES oxidized product] | hardly inhibited CK activity | 155 | 418 | 114 | 335 | 98 | 224 | 99.3 |  |  |  |  |  |  |  |  |  |  |  |  | 
O=S(=O)(O)CCS [2MES, 2-mercaptoethanesulfonic acid] |  |  |  |  |  |  |  |  | 548 | 542 | 147 | 148 | 55 | 55 | 85 | 87 | 204 | 203 | 99.9 | 96.3 | CK activity value [2]: 184 IU/l; retaining CK-reactivating ability for a long period of time in an aqueous solution [2]: capable of retaining CK-reactivating ability for a long period of time; CK activity value [2, 4]: 184 IU/l; CK activity value [2, 23]: 181 IU/l; CK activity value [2, 5]: 553 IU/l; CK activity value [2, 8]: 151 IU/l; CK activity value [2, 11]: 58 IU/l; CK activity value [2, 14]: 88 IU/l; CK activity value, Average [2, 17]: 207 IU/l; CK activity, relative value [2, 20]: 101.4%
Nc1cc(O)nc(SSc2nc(N)cc(O)n2)n1 [AHMP oxidized product] | hardly inhibited CK activity | 161 | 407 | 106 | 322 | 97 | 217 | 96 |  |  |  |  |  |  |  |  |  |  |  |  | 
Nc1nc(SSc2nc(N)nc3c2ncn3[C@@H]2O[C@H](CO)[C@@H](O)[C@H]2O)c2ncn([C@@H]3O[C@H](CO)[C@@H](O)[C@H]3O)c2n1 [AMPR oxidized product] |  | 0 | 1 | 0 | 1 | 0 | 0 | 0.2 |  |  |  |  |  |  |  |  |  |  |  |  | 
N[C@@H](CCC(=O)N[C@@H](CS)C(=O)NCC(=O)O)C(=O)O [GSH, reduced-form glutathione] |  |  |  |  |  |  |  |  |  |  |  |  |  |  |  |  |  |  | 94.1 | 81.9 | CK activity value, Average [2]: 192 IU/l and 167 IU/l
N[C@@H](CS)C(=O)O [L-cysteine] |  |  |  |  |  |  |  |  | 437 | 175 | 110 | 33 | 42 | 12 | 63 | 19 | 158 | 58 | 77.5 | 28.4 | CK activity value [2, 24]: 140 IU/l; CK activity value [2, 23]: 52 IU/l
O.O.OC[C@H]1O[C@@H](S)[C@H](O)[C@@H](O)[C@@H]1O.[Na].[Na] [TDG, 1-thio-β-D-glucose disodium salt dihydrate] |  |  |  |  |  |  |  |  | 3 | 4 | 1 | 2 | 0 | 0 | 0 | 0 | 1 | 1 | 0.4 | 0.6 | retaining CK-reactivating ability for a long period of time in an aqueous solution [2]: incapable of retaining CK-reactivating ability in a solution for a long period of time; CK activity value [2, 24]: 0 IU/l; CK activity value [2, 23]: 0 IU/l
